This is an account of results in a melting point compilation (Tetko et al.; mined from patent text by program, amines drawn as free bases though some values may be those of a salt).

SMILES strings stand for the structures.

In general, melting point refers to the temperature of the solid-liquid transition. `CCCc1cc2cccc(C(=O)OCOC(=O)C(C)(C)C)c2n1Cc1ccc(-c2ccccc2-c2nnn[nH]2)cc1` yielded a melting point of 101 to 103 °C. In the case of `Cc1cc(S(=O)(=O)N(C)CC(O)(CO)c2cccc(Cl)n2)ccc1Cl` (stereo not drawn) it was 131 to 132 °C; in that of `CN(C)CCC(=O)OC1c2ccccc2C(=O)N1c1ccc2ccc(Cl)nc2n1` (stereo not drawn), 150 °C.

Take `CCOC(=O)C=Cc1cc(Cl)cc(Cl)c1`: the melting point was 71 to 73 °C. With `COC(OC)c1cc(C)nc(N)n1`, the melting point lay within 69 to 71 °C. Next, `CSCC(=O)c1cc(C(C)(C)C)c(O)c(C(C)(C)C)c1`: 108 to 110 °C. In turn, `CCOC1CN(Cc2cccc(OC)c2)Cc2cc(OC)c(O)cc21` (stereo not drawn) returned a melting point of 134 to 135 °C.

In the case of `C[C@@H]1Cc2ccsc2[C@H](C)N1CCCCNC(=O)c1ccc(NS(C)(=O)=O)cc1` (relative stereo), the melting point was in the range of 112 to 116 °C. `Cc1nc(O)c(-c2ccc(S(C)(=O)=O)cc2)s1` returned a melting point of 216 to 226 °C. Next, `c1ccc(-c2nnc3c4c(c(OCc5ccccn5)nn23)CCCC4)cc1`: 194 °C; `N#Cc1ccc(OCC(O)CCCl)cc1` (stereo not drawn): 78 to 80 °C; `CC(C#N)=C1CCN(c2ccc(N3C[C@H](CNC(=O)C(Cl)(Cl)Cl)OC3=O)cc2F)CC1`: 166 to 168 °C.

Compound `CC(C)(C=C(Br)Br)C(=O)Nc1ccc(Cl)cc1` displayed a melting point of 104 °C. Consider `COc1c(Cl)ccc(-c2nc(Cl)c3c(ncn3C)n2)c1F`, for which the melting point was in the range of 184 to 186 °C. Consider `COc1ccc(C(=O)Nc2c(C)c(C)c3c(c2C)C(c2ccc(C(C)C)cc2)C(C)(C)O3)cc1OC` (stereo not drawn), for which the melting point lay in the range of 171 to 173 °C.

The compound `CS(=O)(=O)c1ccc(C2=C(c3ccccc3)C(=O)OC23CCC3)cc1` came in with a melting point of 159 to 160 °C. In the case of `COc1ccc(S(=O)(=O)Nc2cccnc2Nc2ccc(OS(=O)(=O)c3ccc(OC)cc3)cc2)cc1` it was 122 to 123 °C; in that of `O=Cc1ccc(-c2ccccc2-c2nnn(C(c3ccccc3)(c3ccccc3)c3ccccc3)n2)cc1`, 147 to 149 °C; in that of `COc1ccc(C(=C(c2ccc(OC)cc2)C(F)(F)F)c2ccc(OCCN(C)C)cc2)cc1`, 77 to 79 °C. Take `CC(=O)NC[C@H]1CN(c2ccc(N3CCC4(CC3)COCO4)c(F)c2)C(=O)O1`: the melting point is 142 to 144 °C. In the case of `Nc1nc(Oc2ccc(O)cc2)nc2nc(-c3ccco3)nn12` it was 292 to 294 °C. Next, `CN1CCC(OC2c3ccccc3CCn3cc(-c4ccc(Br)cc4)nc32)CC1` (stereo not drawn): 142 °C; `CC(CC(C(=O)N(C)C)(c1ccccc1)c1ccccc1)N1CCC(NC(=O)c2cccc(C(F)(F)F)c2)C(O)C1` (stereo not drawn): 141 °C; `O=C(O)c1cccc(-c2cccc(Oc3cc(Cl)cc(Cl)c3)n2)c1`: 234 to 235 °C. The compound `O=S1(=O)OCCN1Cc1ccccc1Cl` registered a melting point of 61 to 62.5 °C. Consider `CC1(C)CCC(C)(C)c2cc(CC(=O)Oc3ccc(C(=O)O)cc3)ccc21`, for which the melting point was 142 to 143 °C. The compound `Cc1ccc2nc3n(c(=O)c2c1)-c1ccccc1C3=O` registered a melting point of 266 to 267 °C.

`CCC(=S)N1CCSC1=Nc1ccccc1C(C)C`: the melting point was 79 to 81 °C. Next, `Cc1cc(C(=O)O)cc(C)c1OCCNC(=O)C1Cc2ccccc2N1S(=O)(=O)c1ccc(-c2ccc(F)cc2)cc1` (stereo not drawn): 124 to 128 °C. In the case of `C#CCC(=NO)C1=CCCN(C)C1` it was 55 to 57 °C. In the case of `CC(C)NC1=NS(=O)(=O)c2ccc(S(=O)(=O)c3ccccc3)cc2N1` it was 178 to 180 °C; in that of `COc1ccc(C(=O)Nc2ccc(C(C)(C)C#N)cc2)c(Cl)c1OC`, 195 to 198 °C.

The compound `CC(CCC(O)C(C)(C)O)C1CCC2C3CC=C4CC(O)CCC4(C)C3CCC12C` (stereo not drawn) showed a melting point of 195 to 199 °C.
